Values quoted from earlier work in paper PMC12444507 (ACS Omega, 2025).

Test system: nirmatrelvir-resistant E166 V-carrying SARS-CoV-2^E166V
Settings: cited from earlier work

CC(C)(C)[C@H](NC(=O)C(F)(F)F)C(=O)N1C[C@H]2[C@@H]([C@H]1C(=O)N[C@@H](C[C@@H]1CCNC1=O)C(=O)c1nc3cc(F)ccc3s1)C2(C)C [TKB272 (8)]
antiviral activity against SARS-CoV-2^E166V: substantial antiviral activity
